Tested on: HCT 116
Experiment: Antiproliferative activity assay (WST-8)
Type: cell-based
Conditions: Homo sapiens, HCT-116, 96 h; incubated 4 days, WST-8; concentration of drug yielding 50% OD of the control growth; read-out: HCT 116 IC50
Method: Antiproliferative activity assay was carried out as follows. A single suspension of tumor cells was inoculated to the serially diluted 96-well microtestplate. Then the testplate was incubated in the 5% CO2 ambience at 37° C. for 4 days (2-3×10^3 cells/well). The degree of cell growth in a monolayer was measured by using WST-8 (Dojindo, Japan). IC50 values of drugs against tumor cells were calculated as the concentration of drug yielding 50% OD of the control growth.

Row | SMILES | IC50 [nM]
1 | CCC(C)C(C(CC(=O)N1CCCC1C(CC(=O)NCCc1ccccc1)SCCOC(C)=O)OC)N(C)C(=O)C(NC(=O)C(C(C)C)N(C)C)C(C)C (stereo not drawn) [Acetic acid 2-{1-[1-(4-{[2-(2-dimethylamino-3-methyl-butyrylamino)-3-methyl-butyryl]-methyl-amino}-3-methoxy-5-methyl-heptanoyl)-pyrrolidin-2-yl]-2-phenethylcarbamoyl-ethylsulfanyl}-ethyl ester] | 0.19
2 | CCC(C)C(C(CC(=O)N1CCCC1C(CC(=O)NCCc1ccccc1)SC(C)(C)C)OC)N(C)C(=O)C(NC(=O)C(C(C)C)N(C)C)C(C)C (stereo not drawn) [N-[1-({1-sec-Butyl-4-[2-(1-tert-butylsulfanyl-2-phenethylcarbamoyl-ethyl)-pyrrolidin-1-yl]-2-methoxy-4-oxo-butyl}-methyl-carbamoyl)-2-methyl-propyl]-2-dimethylamino-3-methyl-butyramide] | 0.17
3 | CCC(C)C(C(CC(=O)N1CCCC1[C@@H](CC(=O)NCCc1ccccc1)SC(C)(C)C)OC)N(C)C(=O)C(NC(=O)C(C(C)C)N(C)C)C(C)C (stereo partly drawn) [N-[1-({1-sec-Butyl-4-[2-(1-(R)-tert-butylsulfanyl-2-phenethylcarbamoyl-ethyl)-pyrrolidin-1-yl]-2-methoxy-4-oxo-butyl}-methyl-carbamoyl)-2-methyl-propyl]-2-dimethylamino-3-methyl-butyramide] | 0.04
4 | CCC(C)C(C(CC(=O)N1CCCC1C(CC(=O)NCCc1ccccc1)SCc1ccccc1)OC)N(C)C(=O)C(NC(=O)C(C(C)C)N(C)C)C(C)C (stereo not drawn) [N-[1-({4-[2-(1-Benzylsulfanyl-2-phenethylcarbamoyl-ethyl)-pyrrolidin-1-yl]-1-sec-butyl-2-methoxy-4-oxo-butyl}-methyl-carbamoyl)-2-methyl-propyl]-2-dimethylamino-3-methyl-butyramide] | 0.52
5 | CCC(C)C(C(CC(=O)N1CCCC1C(CC(=O)N(C)CCc1ccccc1)SC)OC)N(C)C(=O)C(NC(=O)C(C(C)C)N(C)C)C(C)C (stereo not drawn) [N-{1-[(1-sec-Butyl-2-methoxy-4-{2-[2-(methyl-phenethyl-carbamoyl)-1-methylsulfanyl-ethyl]-pyrrolidin-1-yl}-4-oxo-butyl)-methyl-carbamoyl]-2-methyl-propyl}-2-dimethylamino-3-methyl-butyramide] | 0.87
6 | CCC(C)C(C(CC(=O)N1CCCC1C(CC(=O)NCCc1ccc(O)cc1)SC)OC)N(C)C(=O)C(NC(=O)C(C(C)C)N(C)C)C(C)C (stereo not drawn) [N-(1-{[1-sec-Butyl-4-(2-{2-[2-(4-hydroxy-phenyl)-ethylcarbamoyl]-1-methylsulfanyl-ethyl}-pyrrolidin-1-yl)-2-methoxy-4-oxo-butyl]-methyl-carbamoyl}-2-methyl-propyl)-2-dimethylamino-3-methyl-butyramide] | 0.6
7 | CCC(C)C(C(CC(=O)N1CCCC1[C@@H](CC(=O)NCCc1ccccc1)Sc1ccc(O)cc1)OC)N(C)C(=O)C(NC(=O)C(C(C)C)N(C)C)C(C)C (stereo partly drawn) [N-{1-[(1-sec-Butyl-4-{2-[1-(R)-(4-hydroxy-phenylsulfanyl)-2-phenethylcarbamoyl-ethyl]-pyrrolidin-1-yl}-2-methoxy-4-oxo-butyl)-methyl-carbamoyl]-2-methyl-propyl}-2-dimethylamino-3-methyl-butyramide] | 0.6

Same assay, conditions: incubated 4 days, WST-8; concentration of drug yielding 50% OD of the control growth; read-out: HCT 116 IC50

Row | SMILES | IC50 [nM]
8 | CCC(C)C(C(CC(=O)N1CCCC1C(SC)C(C)C(=O)NCCc1ccccc1)OC)N(C)C(=O)C(NC(=O)C(NC)C(C)C)C(C)C (stereo not drawn) [N-[-({1-sec-Butyl-2-methoxy-4-[2-(1-methylsulfanyl-2-phenethylcarbamoyl-propyl)-pyrrolidin-1-yl]-4-oxo-butyl}-methyl-carbamoyl)-2-methyl-propyl]-2-methylamino-3 methyl-butyramide] | 1
9 | CCC(C)C(C(CC(=O)N1CCCC1C(CC(=O)NCCc1ccccc1)Sc1ccccc1)OC)N(C)C(=O)C(NC(=O)C(NC)C(C)C)C(C)C (stereo not drawn) [N-[-({1-sec-Butyl-2-methoxy-4-oxo-4-[2-(2-phenethylcarbamoyl-1-phenylsulfanyl-ethyl)-pyrrolidin-1-yl]-butyl}-methyl-carbamoyl)-2-methyl-propyl]-3-methyl-2-methylamino-butyramide] | 0.87

Reference: patent publication US6737409B2, “Dolastatin 10 derivatives” (Hoffmann-La Roche Inc., priority 2001, dated 2004)
